Consider two compounds from patent US10889569B2, “Condensed ring group azacyclobutyl triazole derivative, preparation method therefor and use thereof in medicine” (Jiangsu Hengrui Medicine Co., Ltd., priority 2016, dated 2021).

As usually defined, the Kp is the ratio of the level in a tissue or fluid to that in plasma or blood.

Data set [1] in a line: Brain permeability of rats (Kp-unbound). The class given is in vivo. The settings on record: both sexes, rat, not told, po; SD rats, 10 mg/kg intragastrically, 0.5 h after administration; read-out: Kp-unbound (blood-brain permeability index). On the procedure:
The activity of the compounds of the present invention on the brain permeability of rats was determined by the following experimental method:
Four SD rats (half male and half female) were maintained in a 12 hours light/12 hours dark cycle, in a constant temperature of 24±3° C. and a humidity of 50-60%, and free access to food and water. The compounds were administered intragastrically to the rats after fasting overnight. The administration dosage was 10 mg/kg. The administration group was sacrificed after blood collection at 0.5 h to 2 h after administration (blood volume: 0.5 ml). The blood sample was stored in heparinized tubes, and centrifuged for 10 minutes at 3500 rpm to separate the plasma, which was marked as plasma 1 and stored at […]. The animal was decapitated after sacrificing, and the brain tissue was collected. The residual blood in the brain tissue was sucked with a filter paper, which was marked as brain tissue 1, and stored at 0° C. ten minutes later. Another three animals were treated by the same method as that of administration group to obtain blank plasma and brain tissue 2.
The drug compounds were diluted to 50 mM with DMSO to obtain a stock solution I. An appropriate amount of stock solution I was diluted with methanol to obtain a diluted stock solution II (200 μM). 10 μl of stock solution II was moved to a 1.5 ml Eppendorf tube, and then added with 990 μl of blank plasma, and mixed well to obtain 2 μM of plasma sample 2 (concentration of DMSO≤0.2%), which was used for the determination of plasma protein binding rate at this concentration. […]
The equilibrium dialysis tube of RED Device Inserts was inserted into a 96-well plate. […] The chromatographic peak area ratios of the total drug (plasma chamber) and the free drug (buffer chamber) to the internal standard were determined directly by the LC/MS/MS method established above respectively, and the free percent (fu plasma %) was calculated.
Brain tissue protein binding equilibrium dialysis process: the blank brain tissue 2 was formulated into a blank brain homogenate with PBS (pH 7.4) according to a dilution factor of 11, and added with compound to formulate a 2 μM brain homogenate. Other procedures were the same with that of plasma protein binding, the chromatographic peak area ratios of the total drug (brain homo chamber) and the free drug (buffer chamber) to the internal standard were determined by the established LC/MS/MS method respectively, and the free percent (fu brain hom %) was calculated.
1) The drug concentrations in plasma 1 and brain tissue 1 of rats 0.5 h after administration were determined by the established LC/MS/MS method respectively, which were the total concentration (Ctotal, p and Ctotal, b); […]

The next data set addresses OTR (Rattus norvegicus (Rat), UniProt P70536). Put plainly: Oxytocin-induced rat uterine contraction model. It is filed as in vivo. The settings on record: female SD rats, 1 μg/kg OT i.v. On the procedure: The efficacy of OTR inhibitors (compound 2-10mpk, compound 2-30mpk and compound 2-100mpk) on oxytocin (OT)-induced rat uterine contraction model was evaluated by establishing a rat uterine contraction model.
Compound 2-100mpk: 221.0 mg of compound 2 was weighed, added with 5.40 ml of Cremophor RH40, 2.16 ml of Masine 35-1, 3.24 ml of polyethylene glycol 400 (PEG400) and 1.20 ml of ethanol respectively, and mixed well by ultrasonic vibration;
Compound 2-30mpk: 54.2 mg of compound 2 was weighed, added with 4.50 ml of Cremophor RH40, 1.80 ml of Masine 35-1, 2.70 ml of polyethylene glycol 400 (PEG400) and 1.00 ml of ethanol respectively, and mixed well by ultrasonic vibration;
Compound 2-10mpk: 1 ml of compound 2-100mpk solution was added with 9 ml of solvent (45% of Cremophor RH40, 18% of Masine 35-1, 27% of PEG400 and 10% of ethanol), and mixed well. […]
After completion of the experiment, the area under curve (AUC) of the uterine contraction pressure 5 minutes before and after the administration of the inducing agent was calculated respectively. The efficacy of the test compound was evaluated by calculating the ratio of the difference value in AUC before and after induction to the AUC before induction, and comparing with the difference value of the ratio after administration of the test compound. ΔAUC ratio=(AUC0−AUCT)/AUC0; […]

OTR, sequence (P70536 whole entry): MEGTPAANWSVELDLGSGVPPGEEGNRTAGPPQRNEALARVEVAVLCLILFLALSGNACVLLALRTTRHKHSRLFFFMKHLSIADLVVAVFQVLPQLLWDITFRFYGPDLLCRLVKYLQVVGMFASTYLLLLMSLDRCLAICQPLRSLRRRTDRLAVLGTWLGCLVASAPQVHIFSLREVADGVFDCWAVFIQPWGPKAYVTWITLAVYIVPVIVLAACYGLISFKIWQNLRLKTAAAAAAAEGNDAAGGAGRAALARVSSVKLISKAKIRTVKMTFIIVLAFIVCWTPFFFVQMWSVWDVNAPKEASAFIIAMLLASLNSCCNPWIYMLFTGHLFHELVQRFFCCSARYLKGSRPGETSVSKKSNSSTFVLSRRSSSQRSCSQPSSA

For the compound `COCc1nnc(N2CC(c3cccc4cc(F)ccc34)C2)n1-c1ccc(OC)nc1` [Example 2, 5-(3-(3-(6-Fluoronaphthalen-1-yl)azetidin-1-yl)-5-(methoxymethyl)-4H-1,2,4-triazol-4-yl)-2-methoxypyridine], the partition ratio (Kp) at 0.5 h in data set [1] worked out at 0.199. Moreover, the “Efficacy on OT-induced uterine contraction vs solvent control group” value at OTR (30mpk p.o.) and on OTR (100mpk p.o.) was “can effectively block the downstream function (uterine contraction) of oxytocin receptors mediated by oxytocin” each time.

As to `COCc1nnc(N2CC(n3cc(C)c4cc(F)ccc43)C2)n1-c1ccc(OC)nc1` [Example 17, 5-Fluoro-1-(1-(5-(methoxymethyl)-4-(6-methoxypyridin-3-yl)-4H-1,2,4-triazol-3-yl)azetidin-3-yl)-3-methyl-1H-indole], the concentration ratio (Kp) at 0.5 h in data set [1] was determined as 0.295.
